# Results as given in US4220795A, “Cyclobutyl substituted derivatives of prostaglandin analogs” (Miles Laboratories, Inc., priority 1978, dated 1980).
# Entries after “also recorded” stand apart in the source; their conditions may differ.
# What was measured:
# [1] = tested on: human platelet aggregation (collagen-induced, platelet rich plasma); details: compared with compounds of Formula III; cited from earlier work
# [2] = tested on: smooth muscle of the vas deferens; details: mammalian male reproductive system; cited from earlier work
# [3] = tested on: female reproductive system; details: cited from earlier work
# gastric secretion = test: Effects on Gastric Secretion in the Rat (Test B); assay type: in vivo; details: pylorus ligated, s.c. 2 x 1.5 mg/kg, 4 hr
# Excerpt: B. Evaluation of the Effects of Prostaglandin Analogs III on Gastric Secretion in the Rat
# A procedure based on that described by Lipmann (J. Pharm. Pharmacol., 21:335 [1968]) was used to assess the influence of test compounds on gastric secretion. Rats of one sex weighing 150 to 200 g were randomly divided into groups of six animals each and fasted for 48 hr previous to the experiments, water being available ad limitum. The animals were anesthetized with ether, the abdomen was opened through a midline incision and the pylorus was ligated. Test compounds were diluted from stock solution so as to administer a dose of 1.5 mg/kg in a volume equivalent to 1 ml/kg. Subcutaneous injections were applied immediately after surgery and again 2 hr later, so that a total dose of 3.0 mg/kg was administered. Dilutions were made with phosphate buffer (pH 7.38) as recommended by Lee et al. (Prostaglandins 3:29 [1973]), in order to insure adequate stability of drugs at the subcutaneous depot. Each compound was tested in one group of rats; an additional control group received only the vehicle.
# Four hr after pyloric ligation the animals were killed with ether, the cardias ligated and the stomachs removed. The volume of gastric secretion was measured and the contents centrifuged at 5000 rpm for 10 min. Total acid in the supernatant was titrated against a 0.1 N sodium hydroxide solution and the amount expressed in mEq.
# Volume and total acid values of the treated group were compared with those of the controls by the "T" test. Anti-secretory activity was scored according to the following scale: […]
# rat uterus = test: Effects on the Rat Uterus (Test F); details: rat uterus segments, 0.001 to 10.0 mcg/ml, 29° C.
# Method: F. Evaluation of the Effects of Prostaglandin Analogs III on the Rat Uterus
# The uterine stimulant effect of test compounds is determined in segments of uterus obtained from rats (140-160 g) pretreated subcutaneously with 1 mg/kg of diethylstibesterol 18 hr before the experiment. The tissues are placed in 10 ml chambers filled with de-Jalon solution at 29° C. and bubbled with 95% O2 and 5% CO2, and prepared for isometric recording with force displacement transducers. Preparations are stretched to an initial tension of 1 g and are left undisturbed for 30 min, after which two responses to 1 mcg/ml of carbachol added to the bath at a 10 min interval, are obtained (the value of the second response is recorded). Responses to increasing concentrations of the test compound (0.001 to 10.0 mcg/ml with one log intervals) are then recorded every 10 min. Preparations are washed four times after each response. All doses of drugs are administered in a 0.1 ml volume. Since it has been observed that the magnitude of the second response to carbachol, which is approximately 10% greater than the first, is close to the maximal response of the tissue, such value is taken as a measure of the sensititity of the particular segment. Responses to each concentration of the test compound are expressed in terms of percentage of the second response to carbachol and the ED50 (dose producing a response of 50% that of carbachol) is calculated graphically. Activity is scored according to the following scale: […]
# femoral blood flow = test: Effects on Femoral Blood Flow in the Dog (Test C); assay type: in vivo, dog (mongrel); details: anesthetized dog, intraarterial 0.001 to 10 mcg
# Method: C. Evaluation of the Effects of Prostaglandin Analogs III on the Femoral Blood Flow in the Dog
# The peripheral vasodilator or constrictor effects of test compounds were determined in mongrel dogs of either sex, weighing between 10 and 20 kg anesthestized intravenously with 35 mg/kg of sodium pentobarbital. An external iliac artery was dissected immediately above the femoral arch for a length of approximately 5 cm and a previously calibrated, non-connulating electromagnetic flowmeter sensor with a lumen between 2.5 and 3.5 mm was placed snugly around the vessel. Cannulas were placed in a branch of the artery arising distally to the location of the flowmeter sensor for intraarterial drug administrations, in the contralateral femoral artery for systemic blood pressure recordings and in the trachea for artificial respiration with room air. Femoral blood flow and systemic blood pressure were continuously recorded with an electromagnetic flowmeter and pressure transducer, respectively.
# After an adequate control period, test compounds were injected intraarterially at one log-spaced doses ranging from 0.001 to 10 mcg., in a volume of 0.5 ml and at 5 to 10 min intervals. Maximum changes in bloodflow, as well as any variations in blood pressure, were tabulated for each dose in absolute values (ml/min and mmHg). The calculations were made taking as control values those existing immediately before administration of each dose. The direction of the observed change (+ for increase and - for decrease) was also noted. The dose changing bloodflow by 100 ml/min (ED100 ml/min) was calculated graphically and was used for scoring activity as follows: […]
# blood pressure = test: Effects on Blood Pressure and Heart Rate in the Anesthetized Cat (Test D); assay type: in vivo; details: i.v. 0.01 to 10.0 mcg/kg, scored on hypotension
# Method: D. Evaluation of the Effects of Prostaglandin Analogs III on Blood Pressure and Heart Rate in the Anesthetized Cat
# The acute effects of test compounds on blood pressure and heart rate were determined in cats of either sex anesthetized with a mixture of pentobarbital sodium (35 mg/kg, i.v.) and barbital sodium (100 mg/kg, i.v.). Cannulas were placed in the trachea to allow adequate spontaneous ventilation, in a femoral artery for blood pressure recording with a strain gage transducer, and in a saphenous vein for drug administration. Heart rate was recorded by means of a cardiotachometer driven by the R wave of the electrocardiogram. After a period of 10 min of stable recordings of blood pressure and heart rate, the test compound was administered intravenously at doses increasing from 0.01 to 10.0 mcg/kg, spaced one log and injected at 10 min intervals. All doses were injected in a volume of 0.1 ml/kg. Modifications of blood pressure and heart rate induced by the test compound were expressed both in absolute units (mmHg and beats/min) and as percent of values recorded immediately before administration of each dose. Biphasic responses were tabulated in the order in which they occur. The direction of the observed changes was also noted (+ for increase and - for decrease).
# Activity of compounds in this test was judged only on the basis of the degree of hypotension observed. Thus, the ED50 mmHg (dose decreasing blood pressure by 50 mmHg) was calculated graphically and the compound scored according to the following scale: […]
# [4] = tested on: blood pressure (hypertensive rat); test: Effects on Blood Pressure in the Hypertensive Rat (Test E); assay type: in vivo; set-up: key: 0: Not significant at any time interval; 1: Significant at one time interval; 2: Significant at two time intervals; 3: Significant at three time intervals; 4: Significant at all four intervals; details: 1 mg/kg intraperitoneal, 2, 4, 6 and 8 hr
# Method: E. Evaluation of the Effects of Prostaglandin Analogs III on Blood Pressure in the Hypertensive Rat
# The acute antihypertensive activity of test compounds is determined in rats made hypertensive by the procedure of Grollman (A. Proc. Soc. Exper. Biol. Med., 57:102, [1944]). Female rats weighing between 60 and 100 g are anesthetized with ether, the right kidney approached through a flank retroperitoneal incision, decapsulated and tied with a figure-of-eight ligature. The animals are left to recover and two weeks later are again anesthetized and the contralateral kidney removed. Four weeks after the second operation the rats are subjected to indirect blood pressure measurements and those showing systolic pressure values greater than 160 mmHg are selected for drug testing.
# Blood pressure is measured in the tail with an inflatable occluding cuff placed at the base of the extremity and a pulse detector located distally. The cuff is inflated to approximately 300 mmHg and is slowly deflated until pulsations appear, indicating the level of systolic pressure; diastolic pressure is not recorded by this procedure. All measurements are carried out in unanesthetized, unsedated animals maintained in a warm environment during the recording procedure and for at least 6 hr before. In all cases, three pressure readings are obtained in succession and mean values are calculated thereof.
# Experiments are carried out in groups of five hypertensive rats in which systolic pressure is determined immediately before and 2, 4, 6 and 8 hr after the intraperitoneal administration of the test compound at a dose of 1 mg/kg. Drugs are diluted from stock solutions with phosphate buffer (Lee et al., Prostaglandins 3:29 [1973]), so as to inject this quantity in a volume of 1 ml/kg. Changes from control blood pressure values are calculated for each interval both in mmHg and in per-cent, and evaluated for significance by means of Wilcoxon's signed rank test (Wilcoxon and Wilcox, Some rapid approximate statistical procedures, Lederle Laboratories, Pearl River [1964]).
SMILES,"Activity value, Test B: Inhibition of a Rodent Gastric Secretion (% decrease in acidity) (gastric secretion)","Activity value, Test F: Effects on Rat Uterus (ED50, response of 50% that of carbachol) (rat uterus)",other results
CCCCC[C@H](O)/C=C/[C@H]1[C@H](O)CC(=O)[C@@H]1CCCCCCC(=O)O [PGE1],,,"inhibition of platelet aggregation, natural prostaglandins, in words [1]: displays a similar activity; contraction of the vas deferens [2]: contracts the smooth muscle of the vas deferens"
CCCCC[C@H](O)/C=C/[C@@H]1[C@@H](C/C=C\CCCC(=O)O)[C@@H](O)C[C@H]1O [PGF2],,,"effects on uterus, fertility, gestation and labor [3]: exerts potent oxytocic effects in inducing labor"
CCCCC[C@H](O)/C=C/[C@@H]1[C@@H](C/C=C\CCCC(=O)O)[C@@H](O)C[C@H]1O [PGF2α],,,"effects on uterus, fertility, gestation and labor [3]: has contragestational effects; also recorded: induces spontaneous abortions in early pregnancy"
"CCC1CC(C(/C=C/C2C=CC(=O)C2CCCCCCC(=O)OC)OC(C)=O)C1 (centres unmarked) [TR-4281, Methyl 15RS-acetoxy-16,18-methano-9-oxoprosta-10,13E-dien-1-oate]",0 (<26),0 (>10),
"CCC1CC([C@H](O)/C=C/C2C(O)CC(O)C2CCCCCCC(=O)OC)C1 (stereo partly drawn) [TR-4624, Methyl 16,18-methano-9α,1α,15S-trihydroxyprost-13E-en-1-oate]",0 (<26),0 (>10),"Activity value, Test C: Increase in Canidae Femoral Blood Flow (ED100 ml/min) (femoral blood flow): 0 (>10.0); Activity value, Test D: Increase in Normal Feline Blood Pressure and Heart Rate (ED50 mmHg) (blood pressure): 0 (>10.1); Activity value, Test E: Effects on Blood Pressure in Hypertensive Rat (blood pressure decrease) [4]: 0"
"CCC1CC([C@H](O)/C=C/C2C(O)CC(O)C2CCCCCCC(=O)OC)C1 (stereo partly drawn) [TR-4625, Methyl 16,18-methano-9β,11α,15S-trihydroxyprost-13E-en-1-oate]",0 (<26),0 (>10),"Activity value, Test C: Increase in Canidae Femoral Blood Flow (ED100 ml/min) (femoral blood flow): 0 (>10.0); Activity value, Test D: Increase in Normal Feline Blood Pressure and Heart Rate (ED50 mmHg) (blood pressure): 0 (>10.1); Activity value, Test E: Effects on Blood Pressure in Hypertensive Rat (blood pressure decrease) [4]: 0"
"CCC1CC([C@H](O)/C=C/C2C(O)CC(O)C2CCCCCCCO)C1 (stereo partly drawn) [TR-4627, 16,18-Methanoprost-13E-en-1,9β,11α,15S-tetraol]",0 (<26),0 (>10),
"CCC1CC(C)([C@@H](O)/C=C/C2C=CC(=O)C2CCCCCCC(=O)OC)C1 (stereo partly drawn) [TR-4695, Methyl 15S-hydroxy-16,18-methano-16-methyl-9-oxoprosta-10,13E-dien-1-oate]",0 (<26),0 (>10),
